Marks after values point to notes of the source that are not given here.
What was measured:
Assay type in all cases: in vivo
ApoE knockout mice = experiment: Plasma sphingomyelin and phosphatidylcholine by HPLC, 4 weeks (Table 2); conditions: for PC in plasma / SM in plasma / SM; PC molar ratio: diet admix 4 weeks, n = 10
Procedure: Animal experiments—Male C57BI/6J and ApoE KO mice on C57BI/6J background were obtained from the Jackson Laboratory (Bar Harbor, Me.) or Taconic (Germantown, N.Y.) (Plaque formation in ApoE KO mice is lipid-driven (A. S. Plump et al., Cell. 1992;71 (2):343-53)). Myriocin was mixed with Western diet containing 0.21% cholesterol and 21% fat. 8-12-week-old mice received 0.3 mg myriocin/kg/day for 12 weeks (Table 1). […] Control groups consisted of ApoE KO mice fed normal chow or Western diet without myriocin, and normal chow-fed C57BI/6J mice. Body weight and chow feeding was measured every week to examine the food consumption. For the femoral artery cuff model, 8-10 week-old male ApoE KO mice were anethetized and the right femoral artery was dissected from its surroundings. A nonconstrictive polyethylene cuff (Portex, 0.40-mm inner diameter, 0.80-mm outer diameter, and 1.5-mm length) was placed looselyaround the right femoral artery.
The liquid chromatography system was composed of twin Shimadzu (Columbia, Md.) LC-10ADvp HPLC pumps with a SCL-10Avp controller (flow rate 0.2 mL/minute), and a LEAP Technologies (Carrboro, N.C.) CTC PAL autosampler. For the quantitative method, the analytical column was a Phenomenex (Torrance, Calif.) Polar-RP (2.0×150 mm, 4 μm) with a MetaChem (Torrance, Calif.) MetaGuard Polaris C8 2.0 mm direct connect (5 μm) guard column. Mobile phase A consisted of water/acetonitrile/formic acid (60/40/0.1) and mobile phase B was propanol. The HPLC pumps were programmed with a gradient for each injection to deliver 98% mobile phase A (0-1 minute), 30% mobile phase A (1-2 minutes), 30% mobile phase A (2-4 minutes), and 98% mobile phase A (4-4.5 minutes). A sample volume of 2 μL was injected into the LC/MS/MS system. Final chromatographic retention times for sphingomyelin, sphinganine, psychosine (internal standard) and ceramide were 4.84 minutes, 5.43 minutes, 4.92 minutes and 5.31 , minutes, respectively. Lipid extracts were analyzed by HPLC and evaporative light scattering detector to determine plasma sphingomyelin and phosphatidylcholine (PC) levels (R. Homan and M.K. Anderson, J. Chromatogr. B. Biomed. Sci. Appl. 1998;708:21-6).
To investigate whether myriocin was effective in lowering sphingomyelin biosynthesis, various concentrations of myriocin were administered to ApoE KO mice for 4 weeks and plasma SM levels were examined. […] At the highest dose of myriocin (1 mg/kg/day), plasma sphingomyelin levels were reduced by 70% when compared with no-myriocin control. Thus, myriocin in a diet admix was effective in inhibiting sphingomyelin biosynthesis and lowering plasma sphingomyelin levels. Since SM levels relative to phospholipids has been regarded as a risk factor for coronary artery disease, plasma PC levels were determined by HPLC analysis. Although there were significant changes in plasma SM levels, plasma PC levels were not changed to the same extent by myriocin. Consequently, SM/PC molar ratio was lowered by myriocin in a dose-dependent manner (Table 2).

[1] = test system: ApoE KO mice fed a Western diet; experiment: Plasma total cholesterol and triglyceride, 4 weeks myriocin diet admix
Procedure: Animal experiments—Male C57BI/6J and ApoE KO mice on C57BI/6J background were obtained from the Jackson Laboratory (Bar Harbor, Me.) or Taconic (Germantown, N.Y.) (Plaque formation in ApoE KO mice is lipid-driven (A. S. Plump et al., Cell. 1992;71 (2):343-53)). Myriocin was mixed with Western diet containing 0.21% cholesterol and 21% fat. 8-12-week-old mice received 0.3 mg myriocin/kg/day for 12 weeks (Table 1). 10-12 week-old ApoE KO mice (n=8) were pre-fed a western diet for 2 weeks and mice received various concentrations of myriocin for 4 weeks in diet admix. Control groups consisted of ApoE KO mice fed normal chow or Western diet without myriocin, and normal chow-fed C57BI/6J mice. Body weight and chow feeding was measured every week to examine the food consumption. For the femoral artery cuff model, 8-10 week-old male ApoE KO mice were anethetized and the right femoral artery was dissected from its surroundings. A nonconstrictive polyethylene cuff (Portex, 0.40-mm inner diameter, 0.80-mm outer diameter, and 1.5-mm length) was placed looselyaround the right femoral artery.
Plasma lipids and serum amyloid A measurement—Mice were sacrificed by CO2 inhalation and blood was collected through cardiac puncture. Plasma concentrations of total cholesterol and triglyceride were determined enzymatically on a Cobas Mira Plus auto-analyzer using Cholesterol R1 and Triglycerides Reagent methods, respectively (Roche Diagnostics, Indiana, USA). Colormetric changes were measured at 500 nm. Lipoproteins were separated from mouse plasma by fast-protein liquid chromatography utilizing a Superose 6HR column. Cholesterol distribution among lipoproteins was determined by in-line post column analysis (K. A. Kieft, T. M. Bocan and B. R. Krause, J. Lipid Res. 1991; 32:859-66). Serum Amyloid A (SAA) protein in plasma was measured by ELISA according to the manufacturer's instructions (Biosource).
FIG. 3. Plasma Cholesterol and Triglycerides in ApoE KO Mice Fed a Western Diet. After 4 weeks of diet admix myriocin treatment, mice were sacrificed and plasma was isolated. Plasma concentrations of total cholesterol (A) and triglyceride (B) were determined enzymatically on a Cobas Mira Plus auto-analyzer using Cholesterol R1 and Triglycerides Reagent methods, respectively. Colormetric changes were measured at 500 nm. The values reported are mean±SEM (n=8, *P<0.01).

[2] = test system: ApoE KO mice fed a Western diet; experiment: Incorporation of T lymphocytes into lesion of aortic root; conditions: 12 weeks
Procedure: For histological analysis, the mice were perfused and fixed in Zinc-Tris fixative. Paraffin embedded sections were stained with Masson's Trichrome. Intimal macrophages were immunohistochemically stained using MAC-2 antibody (clone M3/38 from Cedarlane Laboratories Limited) counterstained with Verhoeff elastic stain. T-lymphocytes were immunohistochemically stained with rat CD3 antibody (clone CD3-12, Serotec). Lesion thickness and area occupied by macrophages were determined using Image Pro Plus software. FIG. 14. Incorporation of T lymphocytes into lesion of aortic root. Cross section of aortic root was stained by rat CD3 antibody and developed by diaminobenzidine (brown color) to detect incorporated T lymphocytes. Sections were counterstained with Harris hematoxylin (blue). T-lymphocyte incorporation was quantified by measuring number of intimal T lymphocytes in aortic root (FIG. 14). Values are mean±SEM (n=5; *P<0.05, Western diet vs standard chow; #P<0.05, Western diet plus myriocin vs standard chow). Bar represents 50 μm.

## CCCCCCC(=O)CCCCCC/C=C/C[C@@H](O)[C@H](O)[C@@](N)(CO)C(=O)O [myriocin]
ApoE knockout mice; 1 mg/kg/day, 4 weeks, vs no-myriocin control
  plasma sphingomyelin levels reduced (HPLC): 70%
ApoE knockout mice; WD + 0.1 mg myr
  PC in plasma: 2.763 ± 0.195 nmol/mL
  SM in plasma: 0.379 ± 0.035 nmol/mL
  SM; PC molar ratio: 0.137 ± 0.005^b
ApoE knockout mice; WD + 0.3 mg myr
  PC in plasma: 1.999 ± 0.085 nmol/mL
  SM in plasma: 0.243 ± 0.032 nmol/mL
  SM; PC molar ratio: 0.122 ± 0.013^b
ApoE knockout mice; WD + 1 mg myr
  PC in plasma: 2.044 ± 0.146 nmol/mL
  SM in plasma: 0.175 ± 0.013 nmol/mL
  SM; PC molar ratio: 0.086 ± 0.008^b
[1]; 0.1 mg/kg/day
  effect on plasma TG levels: no effect
[1]; 0.1 mg/kg/day, vs no-myriocin control
  plasma cholesterol reduction: 46%
[1]; 0.3 mg/kg/day
  plasma TG levels lowered: 44%
[1]; 0.3 mg/kg/day, vs no-myriocin control
  plasma cholesterol decrease (maximum): 76%
[2]
  accumulation of T cells in lesion of aortic root: not affected

— US20080027088A1, “Imidazole-Based Hmg-Coa Reductase Inhibitors” (Warner-Lambert Company, LLC, priority 2004, published 2008)
